Data set [1] has as its target farnesyl protein transferase (Homo sapiens, UniProt P49354+P49356). Briefly: FPT IC50 (inhibition of farnesyl protein transferase, in vitro enzyme assay). The data set is classed as biochemical. Here is the method:
(§1) FPT IC50 (inhibition of farnesyl protein transferase, in vitro enzyme assay) and COS Cell IC50 (Cell-Based Assay) were determined following the assay procedures described in WO 95/10516, published Apr. 20, 1995. GGPT IC50 (inhibition of geranylgeranyl protein transferase, in vitro enzyme assay), Cell Mat Assay, and anti-tumor activity (in vivo anti-tumor studies) could be determined by the assay procedures described in WO 95/10516. The disclosure of WO 95/10516 is incorporated herein by reference thereto.

The subject of the next data set is COS Cell. Briefly: COS Cell IC50 (Cell-Based Assay). The following applies: COS cells. Here is the method:
as §1

The next data set deals with Human tumor cells. Briefly: Soft Agar Assay (anchorage-independent growth). The data set is classed as cell-based. The following applies: colony growth in soft agar. Here is the method: Anchorage-independent growth is a characteristic of tumorigenic cell lines. Human tumor cells are suspended in growth medium containing 0.3% agarose and an indicated concentration of a farnesyl transferase inhibitor. The solution is overlayed onto growth medium solidified with 0.6% agarose containing the same concentration of farnesyl transferase inhibitor as the top layer. After the top layer is solidified, plates are incubated for 10-16 days at 37° C. under 5% CO2 to allow colony outgrowth. After incubation, the colonies are stained by overlaying the agar with a solution of MTT (3-[4,5-dimethyl-thiazol-2-yl]-2,5-diphenyltetrazolium bromide, Thiazolyl blue) (1 mg/mL in PBS). Colonies can be counted and the IC50's can be determined.

Regarding `O=C(O)C1CCC(CC(=O)N2CCC([C@H]3c4ncc(Br)cc4CCc4cc(Cl)cc(Br)c43)CC2)CC1` (stereo partly drawn) [Example 12], the IC50 in data set [1] is 1.9 nM; in the data set on COS Cell, 10 nM; in the data set on Human tumor cells, more than 500 nM.
Consider `COC(=O)CNC(=O)Cc1ccc(CC(=O)N2CCC([C@H]3c4ncc(Br)cc4CCc4cc(Cl)cc(Br)c43)CC2)cc1` [Example 18], for which the melting point lay within 94 to 97 °C. The same compound showed an IC50 in data set [1] of 5.3 nM. The IC50 with COS Cell stood at 450 nM.
`CC(C)(C)OC(=O)C[C@H]1CC[C@@H](C(=O)N2CCC([C@H]3c4ncc(Br)cc4CCc4cc(Cl)cc(Br)c43)CC2)CC1` [Example 9] registered a melting point of 98 to 102 °C. Besides, the IC50 in data set [1] amounted to 44 nM.
For `O=C(O)Cc1cccc(CC(=O)N2CCC([C@H]3c4ncc(Br)cc4CCc4cc(Cl)cc(Br)c43)CC2)c1` [Example 4], the melting point is 205 °C (dec.). Further, in data set [1], the IC50 turned out to be 4.1 nM. This compound also came in with an IC50 in the data set on COS Cell of 400 nM.
In data set [1], `NC(=O)[C@@H]1C[C@H]1C(=O)N1CCC([C@H]2c3ncc(Br)cc3CCc3cc(Cl)cc(Br)c32)CC1` [Example 29 (compound 54.0)] came in with a half-maximal inhibitory concentration (IC50) of 8.3 nM.
As to `O=C(O)C[C@H]1CC[C@H](C(=O)N2CCC([C@H]3c4ncc(Br)cc4CCc4cc(Cl)cc(Br)c43)CC2)CC1` [Example 36], the IC50 in data set [1] came to 10.2 nM; in the data set with COS Cell, 500 nM.
`O=C(Cc1ccc(CC(=O)N2CCC([C@H]3c4ncc(Br)cc4CCc4cc(Cl)cc(Br)c43)CC2)cc1)NCCO` [Example 20]: the melting point is 94 to 100 °C. Besides, in data set [1], the IC50 was more than 140 nM.
As for `O=C(O)CC1CCC(CC(=O)N2CCC([C@H]3c4ncc(Br)cc4CCc4cc(Cl)cc(Br)c43)CC2)CC1` (stereo partly drawn) [Example 13], the concentration for half-maximal inhibition (IC50) was 1.5 nM in data set [1], 10 nM with COS Cell and more than 500 nM with Human tumor cells.
`NC(=O)[C@H]1C[C@@H]1C(=O)N1CCC([C@H]2c3ncc(Br)cc3CCc3cc(Cl)cc(Br)c32)CC1` [30 (compound 55.0)]: the IC50 in data set [1] is 6.2 nM; with COS Cell it was 50 nM.
`NC(=O)Cc1cccc(CC(=O)N2CCC([C@H]3c4ncc(Br)cc4CCc4cc(Cl)cc(Br)c43)CC2)c1` [Example 16] registered a melting point of 119 to 125 °C. Further, in data set [1], half-maximal inhibition (IC50) required 6.3 nM. Besides, the concentration for half-maximal inhibition (IC50) in the data set on COS Cell came out at 375 nM.
With `O=C(Cc1ccccc1C(=O)N1CCOCC1)N1CCC([C@H]2c3ncc(Br)cc3CCc3cc(Cl)cc(Br)c32)CC1` [Example 26], the melting point is 136 to 138 °C. Also, 56 nM corresponded to half-maximal inhibition in data set [1] (IC50).
As for `O=C(O)C=C1CCC(=CC(=O)N2CCC([C@H]3c4ncc(Br)cc4CCc4cc(Cl)cc(Br)c43)CC2)CC1` [Example 14], the melting point was in the range of 161 to 169 °C. In data set [1], the IC50 came out at 5.2 nM. The compound further gave a 50% inhibitory concentration (IC50) in the data set on COS Cell of 55 nM.
Take `NC(=O)CC1CCC(CC(=O)N2CCC(C3c4ncc(Br)cc4CCc4cc(Cl)cc(Br)c43)CC2)CC1` (stereo not drawn) [Example 22]: the melting point was 103 to 110 °C. In data set [1], this compound had a concentration for half-maximal inhibition (IC50) of 6.3 nM. The concentration for half-maximal inhibition (IC50) in the data set with COS Cell was determined as 22 nM.
For `O=C(O)Cc1ccc(CC(=O)N2CCC([C@H]3c4ncc(Br)cc4CCc4cc(Cl)cc(Br)c43)CC2)cc1` [Example 3], the melting point fell in the range of 186 to 189 °C. Moreover, in data set [1], half-maximal inhibition (IC50) was put at 1.6 nM. The compound further came in with an IC50 in the data set on COS Cell of 380 nM.
Take `O=C(Cc1ccccc1C(=O)N1CCC([C@H]2c3ncc(Br)cc3CCc3cc(Cl)cc(Br)c32)CC1)N1CCOCC1` [Example 11]: the melting point lay in the range of 127 to 128 °C. In data set [1], this compound registered an IC50 of 250 nM.
Turning to `O=C(O)[C@H]1CC[C@H](C(=O)N2CCC([C@H]3c4ncc(Br)cc4CCc4cc(Cl)cc(Br)c43)CC2)CC1` [Example 5], the melting point is 138 to 140 °C. For the same compound, the IC50 in data set [1] worked out at 46 nM.
On to `COC(=O)[C@@H]1C[C@H]1C(=O)N1CCC([C@H]2c3ncc(Br)cc3CCc3cc(Cl)cc(Br)c32)CC1` [Example 29 (compound 54.1)], for which the IC50 in data set [1] was found to be 34 nM.
The compound `CC(C)(C)OC(=O)C=C1CCC(=CC(=O)N2CCC([C@H]3c4ncc(Br)cc4CCc4cc(Cl)cc(Br)c43)CC2)CC1` [Example 7] displayed a melting point of 113 to 117 °C. Also, the half-inhibitory concentration (IC50) in data set [1] worked out at 110 nM.
For `O=C(NO)c1ccccc1CC(=O)N1CCC([C@H]2c3ncc(Br)cc3CCc3cc(Cl)cc(Br)c32)CC1` [Example 27], in that order: 156 to 157 °C and 53 nM.
For `O=C(O)c1ccccc1CC(=O)N1CCC([C@H]2c3ncc(Br)cc3CCc3cc(Cl)cc(Br)c32)CC1` [Example 1] the same measures were 229 °C (dec.) and 66 nM.
For `CC(C)(C)OC(=O)CC1CCC(CC(=O)N2CCC([C@H]3c4ncc(Br)cc4CCc4cc(Cl)cc(Br)c43)CC2)CC1` (stereo partly drawn) [Example 6], the melting point was 86 to 90 °C. In data set [1], this compound returned a concentration for half-maximal inhibition (IC50) of 19 nM.
Turning to `NC(=O)Cc1ccc(CC(=O)N2CCC([C@H]3c4ncc(Br)cc4CCc4cc(Cl)cc(Br)c43)CC2)cc1` [Example 15], the half-maximal inhibitory concentration (IC50) in data set [1] was 3.6 nM; with COS Cell it was 100 nM; with Human tumor cells it was more than 500 nM.
`O=C(NCc1ccncc1)c1ccccc1CC(=O)N1CCC([C@H]2c3ncc(Br)cc3CCc3cc(Cl)cc(Br)c32)CC1` [Example 24] returned a melting point of 134 to 138 °C. The compound also had an IC50 in data set [1] of 47 nM.
Regarding `NC(=O)C1CCC(CC(=O)N2CCC(C3c4ncc(Br)cc4CCc4cc(Cl)cc(Br)c43)CC2)CC1` (stereo not drawn) [Example 23], the melting point lay in the range of 145 to 152 °C. This compound also gave an IC50 in data set [1] of 4.6 nM. Besides, half-maximal inhibition with COS Cell (IC50) required 18 nM.
On to `CC(C)(C)OC(=O)C[C@H]1CC[C@H](C(=O)N2CCC([C@H]3c4ncc(Br)cc4CCc4cc(Cl)cc(Br)c43)CC2)CC1` [Example 10], for which the melting point lay within 98 to 102 °C. The compound also yielded a concentration for half-maximal inhibition (IC50) in data set [1] of 91 nM.
In the case of `COC(=O)Cc1ccc(CC(=O)N2CCC([C@H]3c4ncc(Br)cc4CCc4cc(Cl)cc(Br)c43)CC2)cc1` [Example 34], the melting point lay within 81 to 86 °C. This compound registered an IC50 in data set [1] of 8.6 nM. This compound gave an IC50 in the data set with COS Cell of 180 nM.
In turn, `COC(=O)CNC(=O)c1ccccc1CC(=O)N1CCC([C@H]2c3ncc(Br)cc3CCc3cc(Cl)cc(Br)c32)CC1` [Example 25] had a melting point of 116 to 118 °C. This compound also yielded a half-inhibitory concentration (IC50) in data set [1] of 36 nM.
On to `O=C(O)C[C@H]1CC[C@@H](C(=O)N2CCC([C@H]3c4ncc(Br)cc4CCc4cc(Cl)cc(Br)c43)CC2)CC1` [Example 35], for which the half-maximal inhibitory concentration (IC50) came out at 3.3 nM in data set [1] and 70 nM in the data set with COS Cell.
In turn, `CONC(=O)Cc1ccc(CC(=O)N2CCC([C@H]3c4ncc(Br)cc4CCc4cc(Cl)cc(Br)c43)CC2)cc1` [Example 19] showed a melting point of 116 to 123 °C. Also, half-maximal inhibition in data set [1] (IC50) was put at 4.7 nM. This compound also returned a half-inhibitory concentration (IC50) in the data set with COS Cell of 90 nM.
For `COC(=O)CNC(=O)Cc1cccc(CC(=O)N2CCC([C@H]3c4ncc(Br)cc4CCc4cc(Cl)cc(Br)c43)CC2)c1` [Example 17], the melting point was 86 to 90 °C. Besides, in data set [1], the half-maximal inhibitory concentration (IC50) was 9.5 nM. The compound further returned an IC50 with COS Cell of 410 nM.
As for `COC(=O)[C@H]1C[C@@H]1C(=O)N1CCC([C@H]2c3ncc(Br)cc3CCc3cc(Cl)cc(Br)c32)CC1` [30 (compound 55.1)], the IC50 in data set [1] is 25 nM.
